Measured values reported in patent publication US11566007B2, “Ras inhibitors” (Revolution Medicines, Inc., priority 2019, dated 2023).
Read-outs that look alike come from different tables or passages of the source.

Assays:
NCI-H358 (K-Ras G12C) = assay: CellTiter-Glo cell viability assay, NCI-H358; format: cell-based, human; settings: NCI-H358, 5-day treatment, class symbols, read-out: Additional H358 Cell Viability assay data (K-Ras G12C, IC50)
Procedure: Note—The following protocol describes a procedure for monitoring cell viability of K-Ras mutant cancer cell lines in response to a compound of the invention. Other RAS isoforms may be employed, though the number of cells to be seeded will vary based on cell line used.
Test compounds (132.5 nL) were directly dispensed into the assay plates containing cells. […] On day 5, assay plates and their contents were equilibrated to room temperature for approximately 30 minutes. […] Luminescence was measured using the PerkinElmer Enspire. Data were normalized by the following: (Sample signal/Avg. DMSO)*100. The data were fit using a four-parameter logistic fit.

[1] = tested on: NCI-H358 cells (K-Ras G12C); assay: Potency assay: pERK in NCI-H358 cells; format: cell-based, human; settings: H358 KRAS G12C, read-out: pERK EC50
Procedure: The purpose of this assay is to measure the ability of test compounds to inhibit K-Ras in cells. […] This procedure measures a decrease in cellular pERK in response to test compounds.
NCI-H358 cells were grown and maintained using media and procedures recommended by the ATCC. On the day prior to compound addition, cells were plated in 384-well cell culture plates (40 μl/well) and grown overnight in a 37° C., 5% CO2 incubator. Test compounds were prepared in 10, 3-fold dilutions in DMSO, with a high concentration of 10 mM. On the day of assay, 40 nL of test compound was added to each well of cell culture plate using an Echo550 liquid handler (LabCyte®). Concentrations of test compound were tested in duplicate. After compound addition, cells were incubated 4 hours at 37° C., 5% CO2. Following incubation, culture medium was removed and cells were washed once with phosphate buffered saline.
In some experiments, cellular pERK level was determined using the AlphaLISA SureFire Ultra p-ERK1/2 Assay Kit (PerkinElmer). Cells were lysed in 25 μL lysis buffer, with shaking at 600 RPM at room temperature. […] After a 2-hour incubation in the dark, 5 μL donor mix was added, plate was sealed, and incubated 2 hours at room temperature. Signal was read on an Envision plate reader (PerkinElmer) using standard AlphaLISA settings. Analysis of raw data was carried out in Excel (Microsoft) and Prism (GraphPad). Signal was plotted vs. the decadal logarithm of compound concentration, and IC50 was determined by fitting a 4-parameter sigmoidal concentration response model.
In other experiments, cellular pERK was determined by In-Cell Western. […] Fixed cells were washed 4 times for 5 minutes with TBS containing 0.1% Triton X-100 (TBST) and then blocked with 100 μL Odyssey blocking buffer (LI-COR) for 60 minutes at room temperature. […] Cells were washed 4 times for 5 minutes with TBST. Secondary antibody (IR-800CW rabbit, LI-COR, diluted 1:800) and DNA stain DRAQS (LI-COR, diluted 1:2000) were added and incubated 1-2 hours at room temperature. Cells were washed 4 times for 5 minutes with TBST. Plates were scanned on a Li-COR Odyssey CLx Imager. Analysis of raw data was carried out in Excel (Microsoft) and Prism (Graph Pad). Signal was plotted vs. the decadal logarithm of compound concentration, and IC50 was determined by fitting a 4-parameter sigmoidal concentration response model.

| SMILES | IC50 (NCI-H358 (K-Ras G12C); Homo sapiens, NCI-H358, 120 h) [µM] | EC50 ([1]; Homo sapiens, NCI-H358) [µM] | IC50 (NCI-H358 (K-Ras G12C)) [µM] | EC50 [1] [µM] |
| --- | --- | --- | --- | --- |
| C=CC(=O)N1CC[C@H](C(=O)N(C)[C@H](C(=O)N[C@H]2Cc3cc(O)cc(c3)-c3ccc4c(c3)c(c(-c3ccccc3COC)n4CC)CC(C)(C)COC(=O)[C@@H]3CCCN(N3)C2=O)C2CCCC2)C1 [Example A27] | 0.01 to 0.1 | < 5 |  |  |
| C=CC(=O)N1CC[C@H](C(=O)N(C)[C@H](C(=O)N[C@H]2Cc3cc(O)cc(c3)-c3ccc4c(c3)c(c(-c3cnccc3COC)n4CC)CC(C)(C)COC(=O)[C@@H]3CCCN(N3)C2=O)C(C)C)C1 [Example A28, (2S)-N-[(8S,14S)-22-ethyl-4-hydroxy-21-[4-(methoxymethyl)pyridin-3-yl]-18,18-dimethyl-9,15-dioxo-16-oxa-10,22,28-triazapentacyclo[18.5.2.1^[2,6].1^[10,14].0^[23,27]]nonacosa-1(26),2,4,6(29),20,23(27),24-heptaen-8-yl]-3-methyl-2-[N-methyl-1-[(3S)-1-(prop-2-enoyl)pyrrolidin-3-yl]formamido]butanamide] |  |  | < 0.01 | < 5 |
| C=CC(=O)N1CC[C@H](C(=O)N(C)[C@H](C(=O)N[C@H]2Cc3cc(O)cc(c3)-c3ccc4c(c3)c(c(-c3ccccc3[C@@H](C)OC)n4CC)CC(C)(C)COC(=O)[C@@H]3CCCN(N3)C2=O)C(C)C)C1 [Example A29] | 0.1 to 1 | < 5 |  |  |
| C=CC(=O)N1CC[C@H](C(=O)N(C)[C@H](C(=O)N[C@H]2Cc3cc(O)cc(c3)-c3ccc4c(c3)c(c(-c3cccc(CN(C)C)c3)n4CC)CC(C)(C)COC(=O)[C@@H]3CCCN(N3)C2=O)C(C)C)C1 [Example A30] | 0.01 to 0.1 | < 5 |  |  |
| C=CC(=O)N1CC2(CCN([C@H](C(=O)N[C@H]3Cc4cc(O)cc(c4)-c4ccc5c(c4)c(c(-c4ccccc4CCOC)n5CC)CC(C)(C)COC(=O)[C@@H]4CCCN(N4)C3=O)C(C)C)C2=O)C1 [Example A31] | 0.01 to 0.1 | < 5 |  |  |
| C=CC(=O)N1CCC(C(=O)N(C)[C@H](C(=O)N[C@H]2Cc3cc(O)cc(c3)-c3ccc4c(c3)c(c(-c3ccccc3CN(C)C)n4CC)CC(C)(C)COC(=O)[C@@H]3CCCN(N3)C2=O)C(C)C)CC1 [Example A33] | 0.1 to 1 | < 5 |  |  |
| C=CC(=O)N1CC[C@H](C(=O)N(C)[C@H](C(=O)N[C@H]2Cc3cc(O)cc(c3)-c3ccc4c(c3)c(c(-c3ccc5cc(CN(C)C)n(C)c5c3)n4CC)CC(C)(C)COC(=O)[C@@H]3CCCN(N3)C2=O)C(C)C)C1 [Example A35] | 0.01 to 0.1 | < 5 |  |  |
| CCn1c(-c2ccccc2CCOC)c2c3cc(ccc31)-c1cc(O)cc(c1)C[C@H](NC(=O)[C@H](C(C)C)N(C)C(=O)[C@H]1CCN(C(=O)C#CCN(C)C)C1)C(=O)N1CCC[C@H](N1)C(=O)OCC(C)(C)C2 [Example A38] | < 0.01 | < 5 |  |  |
| C=CC(=O)N1CC[C@H](C(=O)N(C)[C@H](C(=O)N[C@H]2Cc3cc(O)cc(c3)-c3ccc4c(c3)c(c(-c3ccc(C5CCN(C)CC5)cc3)n4CC)CC(C)(C)COC(=O)[C@@H]3CCCN(N3)C2=O)C(C)C)C1 [Example A39] | 0.01 to 0.1 | < 5 |  |  |
| C=CC(=O)N1CC[C@H](C(=O)N(C)[C@H](C(=O)N[C@H]2Cc3cc(O)cc(c3)-c3ccc4c(c3)c(c(-c3ccc5c(c3)CCN(C)C5)n4CC)CC(C)(C)COC(=O)[C@@H]3CCCN(N3)C2=O)C(C)C)C1 [Example A40] | 0.01 to 0.1 | < 5 |  |  |
| C=CC(=O)N1C[C@H](C)[C@H](C(=O)N(C)[C@H](C(=O)N[C@H]2Cc3cc(O)cc(c3)-c3ccc4c(c3)c(c(-c3ccccc3CCOC)n4CC)CC(C)(C)COC(=O)[C@@H]3CCCN(N3)C2=O)C(C)C)C1 [Example A41] | 0.01 to 0.1 | < 5 |  |  |
| C=CC(=O)N1CC[C@H](C(=O)N(C)[C@H](C(=O)N[C@H]2Cc3cc(N)cc(c3)-c3ccc4c(c3)c(c(-c3ccccc3COC)n4CC)CC(C)(C)COC(=O)[C@@H]3CCCN(N3)C2=O)C(C)C)C1 [Example A42] | 0.1 to 1 | < 5 |  |  |
| C=CC(=O)N1C[C@H](C)[C@H](C(=O)N(C)[C@H](C(=O)N[C@H]2Cc3cc(O)cc(c3)-c3ccc4c(c3)c(c(-c3ccccc3CN(C)C)n4CC)CC(C)(C)COC(=O)[C@@H]3CCCN(N3)C2=O)C2CCCC2)C1 [Example A43] | 0.01 to 0.1 | < 5 |  |  |
| C=CC(=O)N1CC[C@H](C(=O)N(C)[C@H](C(=O)N[C@H]2Cc3cc(O)cc(c3)-c3ccc4c(c3)c(c(-c3cccnc3COCC)n4CC)CC(C)(C)COC(=O)[C@@H]3CCCN(N3)C2=O)C(C)C)C1 [Example A44] | 0.01 to 0.1 | < 5 |  |  |
| C=CC(=O)N1CC[C@H](C(=O)N(C)[C@H](C(=O)N[C@H]2Cc3cc(O)cc(c3)-c3ccc4c(c3)c(c(-c3cccnc3)n4CC)CC(C)(C)COC(=O)[C@@H]3CCCN(N3)C2=O)C(C)C)C1 [Example A45] | 0.01 to 0.1 | < 5 |  |  |
| CCn1c(-c2ccccc2CN(C)C)c2c3cc(ccc31)-c1cc(O)cc(c1)C[C@H](NC(=O)[C@H](C(C)C)N(C)C(=O)c1ccc(NC(=O)/C=C/CN(C)C)cn1)C(=O)N1CCC[C@H](N1)C(=O)OCC(C)(C)C2 [Example A46] | > 1 | < 5 |  |  |
| CCn1c(-c2ccccc2CN(C)C)c2c3cc(ccc31)-c1cc(O)cc(c1)C[C@H](NC(=O)[C@H](C(C)C)N(C)C(=O)[C@H]1CCN(C(=O)/C=C/CN(C)C)C1)C(=O)N1CCC[C@H](N1)C(=O)OCC(C)(C)C2 [Example A47] | 0.01 to 0.1 | < 5 |  |  |
| C=CC(=O)N1CC[C@H](C(=O)N(C)[C@H](C(=O)N[C@H]2Cc3cc(O)cc(c3)-c3ccc4c(c3)c(c(-c3ccc5c(c3)OCCN5C)n4CC)CC(C)(C)COC(=O)[C@@H]3CCCN(N3)C2=O)C(C)C)C1 [Example A50] | 0.1 to 1 | < 5 |  |  |
| C=CC(=O)N1CC[C@H](C(=O)N(C)[C@H](C(=O)N[C@H]2Cc3cc(O)cc(c3)-c3ccc4c(c3)c(c(-c3ccc(CN(C)C)cc3COC)n4CC)CC(C)(C)COC(=O)[C@@H]3CCCN(N3)C2=O)C(C)C)C1 [Example A51] | 0.01 to 0.1 | < 5 |  |  |
| C=CC(=O)N1C[C@H](C)[C@H](C(=O)N(C)[C@H](C(=O)N[C@H]2Cc3cc(O)cc(c3)-c3ccc4c(c3)c(c(-c3ccccc3CN(C)C)n4CC)CC(C)(C)COC(=O)[C@@H]3CCCN(N3)C2=O)C(C)C)C1 [Example A52] | 0.01 to 0.1 | < 5 |  |  |
| CCn1c(-c2cccnc2COC)c2c3cc(ccc31)-c1cc(O)cc(c1)C[C@H](NC(=O)[C@H](C(C)C)N(C)C(=O)[C@H]1CCN(C(=O)/C=C/CN(C)C)C1)C(=O)N1CCC[C@H](N1)C(=O)OCC(C)(C)C2 [Example A54, (2S)-2-{1-[(3S)-1-[(2E)-4-(dimethylamino)but-2-enoyl]pyrrolidin-3-yl]-N-methylformamido}-N-[(8S,14S)-22-ethyl-4-hydroxy-21-[2-(methoxymethyl)pyridin-3-yl]-18,18-dimethyl-9,15-dioxo-16-oxa-10,22,28-triazapentacyclo[18.5.2.1^2,^6.1^10,^14.0^23,^27]nonacosa-1(26),2,4,6(29),20,23(27),24-heptaen-8-yl]-3-methylbutanamide] | 0.01 to 0.1 | < 5 |  |  |
| C=CC(=O)N1CC[C@H](C(=O)N(C)[C@H](C(=O)N[C@H]2Cc3cc(O)cc(c3)-c3ccc4c(c3)c(c(-c3cccnc3COC)n4CC)CC(C)(C)COC(=O)[C@@H]3CCCN(N3)C2=O)C2CCCC2)C1 [Example A55] | < 0.01 | < 5 |  |  |
